Source: patent US20250064789A1, “KETOAMIDE DERIVATIVES AND PHARMACEUTICAL USES THEREOF” (priority 2022, published 2025)

What follows are molecules tested against recombinant SARS-CoV-2 M^pro (Severe acute respiratory syndrome coronavirus 2 (2019-nCoV) (SARS-CoV-2), UniProt P0DTD1) (assay: Inhibition of SARS-CoV-2 M^pro enzyme activity (fluorescent substrate assay)). Conditions: inhibition of SARS-CoV-2 M^pro enzyme activity; values given in μM; read-out: IC50.
Assay type: biochemical
With CN1CCC(C(=O)NC2(C(=O)N[C@H](Cc3ccccc3)C(=O)C(=O)NCc3ccccn3)CCC2)CC1=O (stereo partly drawn) [Compound 189] the IC50 was > 2.5 µM.
With CC(C)(C)[C@H](NC(=O)C(F)(F)F)C(=O)N[C@H](Cc1ccccc1)C(=O)C(=O)NCc1ccccn1 [Compound 245] the IC50 was > 5 µM.

Same assay, conditions: inhibition of SARS-CoV-2 M^pro enzyme activity; values in nM; read-out: IC50
COc1ccc(OC(F)(F)F)cc1C(=O)NC(C)(C)C(=O)N[C@H](Cc1ccccc1)C(=O)C(=O)NCc1ccccn1 [Compound 183] was tested, and the IC50 was 0.0219 ± 0.0003 µM.
CC(C)(NC(=O)c1ccc(F)c(OC(F)(F)F)c1)C(=O)N[C@H](Cc1ccccc1)C(=O)C(=O)NCc1ccccn1 [Compound 184] showed an IC50 of 0.0133 ± 0.0002 µM.
In the case of CC(C)(NC(=O)C1(F)CCCCC1)C(=O)N[C@H](Cc1ccccc1)C(=O)C(=O)NCc1ccccn1 [Compound 185], the IC50 is reported as 0.0097 ± 0.0007 µM.
For CC(C)(NC(=O)c1ccc(F)cc1)C(=O)N[C@H](Cc1ccccc1)C(=O)C(=O)NCc1ccccn1 [Compound 186], the IC50 was 0.0186 ± 0.0011 µM.
O=C(NCc1ccccn1)C(=O)[C@@H](Cc1ccccc1)NC(=O)C1(NC(=O)C2CCC(F)(F)CC2)CCC1 [Compound 187] showed an IC50 of 0.0107 ± 0.0005 µM.
O=C(NCc1ccccn1)C(=O)[C@@H](Cc1ccccc1)NC(=O)C1(NC(=O)[C@H]2CC[C@@H](F)CC2)CCC1 [Compound 188] was tested, and the IC50 was 0.079 ± 0.0088 µM.
O=C(NCc1ccccn1)C(=O)[C@@H](Cc1ccccc1)NC(=O)C1(NC(=O)C2CC(=O)N(c3ccccc3)C2)CCC1 (stereo partly drawn) [Compound 190] showed an IC50 of 0.0296 µM.
With O=C(NCc1ccccn1)C(=O)[C@@H](Cc1ccccc1)NC(=O)C1(NC(=O)C2CCOCC2)CCC1 [Compound 191] the IC50 was 0.073 ± 0.0045 µM.
Work on CC1(C)C(C(=O)NC2(C(=O)N[C@H](Cc3ccccc3)C(=O)C(=O)NCc3ccccn3)CCC2)C1(C)C [Compound 192] yielded an IC50 of 0.0254 ± 0.0009 µM.
In the case of O=C(NCc1ccccn1)C(=O)[C@@H](Cc1ccccc1)NC(=O)C1(NC(=O)C2CCCC(F)(F)C2)CCC1 (stereo partly drawn) [Compound 193], the IC50 is reported as 0.0167 ± 0.0004 µM.
Work on CN(C(=O)C1CCC(F)(F)CC1)C1(C(=O)N[C@H](Cc2ccccc2)C(=O)C(=O)NCc2ccccn2)CCC1 [Compound 194] yielded an IC50 of 0.387 ± 0.03 µM.
With O=C(NCc1ccccn1)C(=O)[C@@H](Cc1ccccc1)NC(=O)C1(NC(=O)C2CCCCCC2)CCC1 [Compound 195] the IC50 was 0.0308 ± 0.0001 µM.
Work on O=C(CC12CC3CC(CC(C3)C1)C2)NC1(C(=O)N[C@H](Cc2ccccc2)C(=O)C(=O)NCc2ccccn2)CCC1 [Compound 196] yielded an IC50 of 0.0145 ± 0.0001 µM.
Molecule O=C(CC1CCCC1)NC1(C(=O)N[C@H](Cc2ccccc2)C(=O)C(=O)NCc2ccccn2)CCC1 [Compound 197] has an IC50 of 0.0138 ± 0.0008 µM.
Molecule O=C(NCc1ccccn1)C(=O)[C@@H](Cc1ccccc1)NC(=O)C1(NC(=O)c2cc(C(F)(F)F)[nH]n2)CCC1 [Compound 198] has an IC50 of 0.0181 ± 0.0027 µM.
With O=C(NCc1ccccn1)C(=O)[C@@H](Cc1ccccc1)NC(=O)C1(NC(=O)C23CC4CC(CC(O)(C4)C2)C3)CCC1 [Compound 199] the IC50 was 0.0527 ± 0.001 µM.
Work on O=C(NCc1ccccn1)C(=O)[C@@H](Cc1ccccc1)NC(=O)C1(NC(=O)c2[nH]nc3c2COCC3)CCC1 [Compound 200] yielded an IC50 of 0.2193 ± 0.0006 µM.
Work on O=C(NCc1ccccn1)C(=O)[C@@H](Cc1ccccc1)NC(=O)C1(NC(=O)[C@H]2CC[C@H](c3ccc(Cl)cc3)CC2)CCC1 [Compound 201] yielded an IC50 of 0.6534 ± 0.0041 µM.
Molecule O=C(NCc1ccccn1)C(=O)[C@@H](Cc1ccccc1)NC(=O)C1(NC(=O)[C@@H]2C[C@@H]3[C@H](C2)C3(F)F)CCC1 [Compound 202] has an IC50 of 0.0174 ± 0.0012 µM.
Molecule O=C(NCc1ccccn1)C(=O)[C@@H](Cc1ccccc1)NC(=O)C1(NC(=O)C23CC4(F)CC(F)(CC(F)(C4)C2)C3)CCC1 [Compound 203] has an IC50 of 0.0196 ± 0.0006 µM.
Work on O=C(NCc1ccccn1)C(=O)[C@@H](Cc1ccccc1)NC(=O)C1(NC(=O)C2CC(F)(F)C2)CCC1 [Compound 204] yielded an IC50 of 0.0367 ± 0.0009 µM.
O=C(NCc1ccccn1)C(=O)[C@@H](Cc1ccccc1)NC(=O)C1(NC(=O)C2CCC(O)(C(F)(F)F)CC2)CCC1 (stereo partly drawn) [Compound 205] was tested, and the IC50 was 0.0239 ± 0.0009 µM.
CC(C)[C@@H]1CC[C@@H](C)C[C@H]1OCC(=O)NC1(C(=O)N[C@H](Cc2ccccc2)C(=O)C(=O)NCc2ccccn2)CCC1 [Compound 206] was tested, and the IC50 was 0.018 ± 0.0005 µM.
O=C(COC1CCCC1)NC1(C(=O)N[C@H](Cc2ccccc2)C(=O)C(=O)NCc2ccccn2)CCC1 [Compound 207] was tested, and the IC50 was 0.0461 ± 0.0009 µM.
N#Cc1ccc(OCC(=O)NC2(C(=O)N[C@H](Cc3ccccc3)C(=O)C(=O)NCc3ccccn3)CCC2)cc1 [Compound 208] was tested, and the IC50 was 0.0371 ± 0.0017 µM.
O=C(CC1CC(F)(F)C1)NC1(C(=O)N[C@H](Cc2ccccc2)C(=O)C(=O)NCc2ccccn2)CCC1 [Compound 209] was tested, and the IC50 was 0.0122 ± 0.0002 µM.
O=C(CC1CCOCC1)NC1(C(=O)N[C@H](Cc2ccccc2)C(=O)C(=O)NCc2ccccn2)CCC1 [Compound 210] showed an IC50 of 0.0207 ± 0.0011 µM.
For O=C(NCc1ccccn1)C(=O)[C@@H](Cc1ccccc1)NC(=O)C1(NC(=O)C2C3COCC32)CCC1 (stereo partly drawn) [Compound 211], the IC50 was 0.0577 ± 0.003 µM.
With CC1=NN=C(C)C1C(=O)NC1(C(=O)N[C@H](Cc2ccccc2)C(=O)C(=O)NCc2ccccn2)CCC1 [Compound 212] the IC50 was 0.346 ± 0.0099 µM.
Work on O=C(CCC(F)(F)F)NC1(C(=O)N[C@H](Cc2ccccc2)C(=O)C(=O)NCc2ccccn2)CCC1 [Compound 213] yielded an IC50 of 0.0414 ± 0.0008 µM.
O=C(NCc1ccccn1)C(=O)[C@@H](Cc1ccccc1)NC(=O)C1(NC(=O)C2CC3CCC2C3)CCC1 (stereo partly drawn) [Compound 214] was tested, and the IC50 was 0.0174 ± 0.0005 µM.
Work on O=C(NCc1ccccn1)C(=O)[C@@H](Cc1ccccc1)NC(=O)C1(NC(=O)c2ccc(F)cc2)CCC1 [Compound 215] yielded an IC50 of 0.0137 ± 0.0009 µM.
With O=C(NCc1ccccn1)C(=O)[C@@H](Cc1ccccc1)NC(=O)[C@@H](Cc1ccccc1)NC(=O)[C@H]1CC[C@H](C(F)(F)F)CC1 [Compound 216] the IC50 was 0.0163 ± 0.0004 µM.
Molecule O=C(NCc1ccccn1)C(=O)[C@@H](Cc1ccccc1)NC(=O)[C@@H](Cc1ccccn1)NC(=O)C1CCC(F)(F)CC1 [Compound 217] has an IC50 of 0.0273 ± 0.0012 µM.
For O=C(NCc1ccccn1)C(=O)[C@@H](Cc1ccccc1)NC(=O)[C@@H](Cc1cccnc1)NC(=O)C1CCC(F)(F)CC1 [Compound 218], the IC50 was 0.0234 ± 0.0008 µM.
Molecule CC(C)C[C@@H](NC(=O)C1CCC(F)(F)CC1)C(=O)N[C@H](Cc1ccccc1)C(=O)C(=O)NCc1ccccn1 [Compound 219] has an IC50 of 0.0134 ± 0.0017 µM.
For O=C(NCc1ccccn1)C(=O)[C@@H](Cc1ccccc1)NC(=O)[C@@H](CC1CCCCC1)NC(=O)C1CCC(F)(F)CC1 [Compound 220], the IC50 was 0.0139 ± 0.0001 µM.
Work on CC[C@@H](C)[C@@H](NC(=O)C1CCC(F)(F)CC1)C(=O)N[C@H](Cc1ccccc1)C(=O)C(=O)NCc1ccccn1 [Compound 221] yielded an IC50 of 0.0156 ± 0.0012 µM.
COC[C@@H](NC(=O)C1CCC(F)(F)CC1)C(=O)N[C@H](Cc1ccccc1)C(=O)C(=O)NCc1ccccn1 [Compound 222] was tested, and the IC50 was 0.0165 ± 0.0015 µM.
Molecule O=C(NCc1ccccn1)C(=O)[C@@H](Cc1ccccc1)NC(=O)[C@H](NC(=O)C1CCC(F)(F)CC1)C1CCCCC1 [Compound 223] has an IC50 of 0.0111 ± 0.0003 µM.
In the case of CC(C)(C)C[C@@H](NC(=O)C1CCC(F)(F)CC1)C(=O)N[C@H](Cc1ccccc1)C(=O)C(=O)NCc1ccccn1 [Compound 224], the IC50 is reported as 0.0258 ± 0.0013 µM.
CC(C)(C)OC(=O)N1CC(NC(=O)C2CCC(F)(F)CC2)(C(=O)N[C@H](Cc2ccccc2)C(=O)C(=O)NCc2ccccn2)C1 [Compound 225] showed an IC50 of 0.0382 ± 0.003 µM.
Molecule O=C(NCc1ccccn1)C(=O)[C@@H](Cc1ccccc1)NC(=O)[C@H](NC(=O)C1CCC(F)(F)CC1)C1CCCC1 [Compound 226] has an IC50 of 0.016 ± 0.0008 µM.
O=C(NCc1ccccn1)C(=O)[C@@H](Cc1ccccc1)NC(=O)C1(NC(=O)C2CCC(F)(F)CC2)CC(F)(F)C1 [Compound 227] showed an IC50 of 0.019 ± 0.0003 µM.
With O=C(NCc1ccccn1)C(=O)[C@@H](Cc1ccccc1)NC(=O)C1(NC(=O)C2CCC(F)(F)CC2)CCOC1 (stereo partly drawn) [Compound 228] the IC50 was 0.0181 ± 0.0011 µM.
In the case of C=C[C@@H]1C[C@]1(NC(=O)C1CCC(F)(F)CC1)C(=O)N[C@H](Cc1ccccc1)C(=O)C(=O)NCc1ccccn1 [Compound 229], the IC50 is reported as 0.0338 ± 0.001 µM.
O=C(NCc1ccccn1)C(=O)[C@@H](Cc1ccccc1)NC(=O)[C@H](NC(=O)C1CCC(F)(F)CC1)C1CCOCC1 [Compound 230] gave an IC50 of 0.0645 ± 0.0007 µM.
Molecule C#CCC(NC(=O)C1CCC(F)(F)CC1)C(=O)N[C@H](Cc1ccccc1)C(=O)C(=O)NCc1ccccn1 (stereo partly drawn) [Compound 231] has an IC50 of 0.0354 ± 0.0002 µM.
In the case of CN(C)CC(NC(=O)C1CCC(F)(F)CC1)C(=O)N[C@H](Cc1ccccc1)C(=O)C(=O)NCc1ccccn1 (stereo partly drawn) [Compound 232], the IC50 is reported as 0.0607 ± 0.0001 µM.
In the case of O=C(NCc1ccccn1)C(=O)[C@@H](Cc1ccccc1)NC(=O)[C@@]1(NC(=O)C2CCC(F)(F)CC2)C[C@H]1C(F)F [Compound 233], the IC50 is reported as 0.0103 ± 0.0003 µM.
In the case of O=C(NCc1ccccn1)C(=O)[C@@H](Cc1ccccc1)NC(=O)C1(NC(=O)C2CCC(F)(F)CC2)COC1 [Compound 234], the IC50 is reported as 0.0188 ± 0.0027 µM.
Work on O=C(NCc1ccccn1)C(=O)[C@@H](Cc1ccccc1)NC(=O)C1(NC(=O)[C@@H]2C[C@@H]3[C@H](C2)C3(F)F)CC(F)(F)C1 [Compound 235] yielded an IC50 of 0.0286 ± 0.0021 µM.
O=C(CC1CCC(F)(F)CC1)N[C@H](CC1CCCCC1)C(=O)N[C@H](Cc1ccccc1)C(=O)C(=O)NCc1ccccn1 [Compound 236] gave an IC50 of 0.0414 ± 0.0001 µM.
CC(C)(C)C(NC(=O)C1CCC(F)(F)CC1)C(=O)N[C@H](Cc1ccccc1)C(=O)C(=O)NCc1ccccn1 (stereo partly drawn) [Compound 237] was tested, and the IC50 was 0.132 ± 0.0044 µM.
In the case of O=C(NCc1ccccn1)C(=O)[C@@H](Cc1ccccc1)NC(=O)C1(NC(=O)C2CCC(F)(F)CC2)CCCC1 [Compound 239], the IC50 is reported as 0.0322 ± 0.001 µM.
Work on CC(C)(O)[C@@H](NC(=O)C1CCC(F)(F)CC1)C(=O)N[C@H](Cc1ccccc1)C(=O)C(=O)NCc1ccccn1 [Compound 241] yielded an IC50 of 0.0421 ± 0.0016 µM.
For CC(C)[C@@H](NC(=O)C1CCC(F)(F)CC1)C(=O)N[C@H](Cc1ccccc1)C(=O)C(=O)NCc1ccccn1 [Compound 242], the IC50 was 0.0268 ± 0.0018 µM.
Molecule O=C(NCc1ccccn1)C(=O)[C@@H](Cc1ccccc1)NC(=O)C1(NC(=O)C2CCC(F)(F)CC2)Cc2ccccc2C1 [Compound 243] has an IC50 of 0.0184 ± 0.0001 µM.
O=C(CC1CCC(F)(F)CC1)NC1(C(=O)N[C@H](Cc2ccccc2)C(=O)C(=O)NCc2ccccn2)Cc2ccccc2C1 [Compound 244] was tested, and the IC50 was 0.0151 ± 0.0001 µM.
Work on CC[C@@H](NC(=O)c1ccc(F)cc1)C(=O)N[C@H](Cc1ccccc1)C(=O)C(=O)NCc1ccccn1 [Compound 246] yielded an IC50 of 0.0236 ± 0.0003 µM.
For CC(C)[C@@H](NC(=O)c1ccc(F)cc1)C(=O)N[C@H](Cc1ccccc1)C(=O)C(=O)NCc1ccccn1 [Compound 247], the IC50 was 0.0382 ± 0.0028 µM.
